Drawing on ChEMBL document CHEMBL1914419, “Discovery of aryloxy tetramethylcyclobutanes as novel androgen receptor antagonists” (J Med Chem, 2011), this text covers microsomal CLint for 18 molecules.

Usually microsomal CLint stands for the capacity of the preparation to metabolise the compound, expressed as a volume cleared per time.

The data set in a line: Intrinsic clearance in human liver microsomes. In kind it is ADME, Microsome. A general note: Microsomes from liver hold many membrane-bound enzymes, among them those of drug oxidation.
In the case of `CC(=O)N[C@H]1C(C)(C)[C@H](Oc2ccc(C#N)cc2Cl)C1(C)C`, the microsomal CLint was found to be 17.5 µL/min/mg.

The molecule `CC(=O)N[C@H]1C(C)(C)[C@H](Oc2ccc(C#N)c(C(F)(F)F)c2)C1(C)C` came in with an intrinsic metabolic clearance (microsomal CLint) of 11 µL/min/mg.

Turning to `CC(=O)N[C@H]1C(C)(C)[C@H](Oc2ccc(C#N)c(C#N)c2)C1(C)C`, the microsomal CLint is less than 7 µL/min/mg.

`CC1(C)[C@H](NC(=O)c2ccn(CCO)n2)C(C)(C)[C@H]1Oc1ccc(C#N)c(Cl)c1`: the microsomal CLint is less than 12 µL/min/mg.

In turn, `CC1(C)[C@H](NC(=O)c2ccn(CCC#N)n2)C(C)(C)[C@H]1Oc1ccc(C#N)c(Cl)c1` came in with a microsomal CLint of 25 µL/min/mg.

On to `CN(C)C(=O)Cn1ccc(C(=O)N[C@H]2C(C)(C)[C@H](Oc3ccc(C#N)c(Cl)c3)C2(C)C)n1`, for which the intrinsic metabolic clearance (microsomal CLint) was found to be 15 µL/min/mg.

In turn, `COCCn1ccc(C(=O)N[C@H]2C(C)(C)[C@H](Oc3ccc(C#N)c(Cl)c3)C2(C)C)n1` had a microsomal CLint of 57 µL/min/mg.

Molecule `CC1(C)[C@H](NC(=O)c2cnccn2)C(C)(C)[C@H]1Oc1ccc(C#N)c(Cl)c1` had a microsomal CLint of 9.8 µL/min/mg.

Consider `Cc1nnc(C(=O)N[C@H]2C(C)(C)[C@H](Oc3ccc(C#N)c(Cl)c3)C2(C)C)o1`, for which the microsomal CLint was found to be 29 µL/min/mg.

`Cc1nc(O[C@H]2C(C)(C)[C@H](NC(=O)c3cnc4ncccn34)C2(C)C)ccc1C#N`: the intrinsic clearance (microsomal CLint) is less than 8 µL/min/mg.

As for `CC1(C)[C@H](NC(=O)c2cnn(CCO)c2)C(C)(C)[C@H]1Oc1ccc(C#N)c(Cl)c1`, the microsomal CLint worked out at 11 µL/min/mg.

`CC1(C)[C@H](NC(=O)c2cn[nH]c2)C(C)(C)[C@H]1Oc1ccc(C#N)c(Cl)c1` gave a microsomal CLint of less than 8 µL/min/mg.

Take `Cn1cc(C(=O)N[C@H]2C(C)(C)[C@H](Oc3ccc(C#N)c(Cl)c3)C2(C)C)cn1`: the intrinsic metabolic clearance (microsomal CLint) was 9 µL/min/mg.

Take `Cc1nc2ncccn2c1C(=O)N[C@H]1C(C)(C)[C@H](Oc2ccc(C#N)c(Cl)c2)C1(C)C`: the microsomal CLint amounted to 19 µL/min/mg.

As for `CC(=O)N[C@H]1C(C)(C)[C@H](Oc2ccc(C#N)c(C)c2)C1(C)C`, the microsomal CLint is less than 7 µL/min/mg.

Take `Cc1cc(C(=O)N[C@H]2C(C)(C)[C@H](Oc3ccc(C#N)c(Cl)c3)C2(C)C)nn1C`: the intrinsic clearance (microsomal CLint) is 40 µL/min/mg.

In turn, `CC(=O)N[C@H]1C(C)(C)[C@H](Oc2ccc(C#N)c(Cl)c2)C1(C)C` returned a microsomal CLint of less than 8 µL/min/mg.

As to `CC1(C)[C@H](NC(=O)c2cnc3ncccn23)C(C)(C)[C@H]1Oc1ccc(C#N)c(Cl)c1`, the intrinsic clearance (microsomal CLint) is less than 10 µL/min/mg.
